Key:
[1] = system: skin; details: healthy subjects, cited from earlier work
[2] = system: ankylosing spondylitis (Bechterew's disease); type: in vivo, human; details: for Outcome of earlier treatment with TNF-α inhibitors (patient history): human, in vivo
[3] = system: rheumatoid arthritis; experiment: Treatment of patients suffering from rheumatoid arthritis (CRP, tender/swollen joints, HAQ, patient's statement); type: in vivo, human
[4] = system: polymyalgia rheumatica; experiment: Treatment of patients suffering from polymyalgia rheumatica (CRP, tender/swollen joints, HAQ); type: in vivo, human; details: Patient 14; 70 mg gradually reduced to 8 mg, increased again to 10 mg
Excerpt: The investigation and determination of the joint condition has been performed by a physician or rheumatologist. A tender joint (TJ) was pressure sensitive but not necessarily swollen. […] The amount of TJ and SJ was counted. A reduction in the amounts of TJ and/or SJ, respectively, was an indication for a reduction in inflammation, mitigation of the disease and an improvement of the patient's health condition.
The CRP (C-reactive protein) is the most important blood laboratory value for detecting and monitoring inflammation in the body. It was determined by a certified laboratory. A low CRP indicates the absence of an inflammation, while a high CRP is indicative for an inflammation to be present.
The functional disability index (HAQ) is the average of the highest numerical values reported for each of the eight different domains. High HAQ-scores correspond to a high degree of disability.
The treatment according to the present invention was performed by topically applying a heat pad on the upper side of the forearm as described in the Materials and Methods' section ‘Application of a heat pad’. The heat pad was applied for about 1 min to 2 min. The skin turned red and became warm and an increase in the skin temperature was palpable. About 30 see to 1 min after removing the heat pad the injections were performed intradermally within the skin of the red and warmed skin area. […]

In the case of `COC(=O)c1cccnc1` [MN, methyl nicotinate], the “Perfusion response of the skin” value ([1]; 50 μl of 20 mmol/l MN topically) is given as “reproducible perfusion response” and the “Time course of the perfusion increase” value ([1]; topical application of MN) is given as “reaches a stable plateau phase after five minutes”.
With Enbrel® the “Outcome of earlier treatment with TNF-α inhibitors (patient history)” value [2] was “accompanied by strong adverse side effects”.
In the case of `CN(Cc1cnc2nc(N)nc(N)c2n1)c1ccc(C(=O)N[C@@H](CCC(=O)O)C(=O)O)cc1` [MTX, methotrexate], the “Adverse side effects / outcome of earlier treatment (patient history)” value ([3]; human, in vivo) is reported as “severe adverse effects (tendency to fibrosis in the lungs and sinusitis)”.
In the case of `CC[C@@H]1CN(C(=O)NCC(F)(F)F)C[C@@H]1c1cnc2cnc3[nH]ccc3n12` [upadacitinib], the “Adverse side effects / outcome of earlier treatment (patient history)” value ([3]; Patient 7, years 2008 to April 2021) is reported as “severe adverse effects (tendency to fibrosis in the lungs and sinusitis)”.
In the case of “Simponi®: biologic, golimumab; TNF-α inhibitor”, the “Effect of earlier treatment with biologics (patient history)” value ([2]; Patient 11, ended more than a year before, lost their effect within half a year) is reported as “had little effect from the outset” and the “Outcome of earlier treatment with TNF-α inhibitors (patient history)” value [2] is reported as “accompanied by strong adverse side effects”.
In the case of tocilizumab: IL-6 inhibitor, the “Effectiveness of earlier or basic treatment (patient history)” value ([3]; Patient 7, not the treatment of the invention) is reported as “only partially efficient”.
With `C[C@]12C=CC(=O)C=C1CC[C@@H]1[C@@H]2[C@@H](O)C[C@@]2(C)[C@H]1CC[C@]2(O)C(=O)CO` [prednisolone] the “Outcome of earlier treatment (patient history)” value [4] was “without complete remission of symptoms”.
With Remicade®: TNF-α inhibitor the “Outcome of earlier treatment with TNF-α inhibitors (patient history)” value [2] was “accompanied by strong adverse side effects”.

— patent publication US20240261374A1, “PHARMACEUTICAL COMPOSITION AND KIT COMPRISING AN IMMUNOMODULATORY SUBSTANCE FOR TREATING DISEASES” (ellennbe GmbH, priority 2021, published 2024)
